Measured values as given in patent US11312719B2, “9-substituted amino triazolo quinazoline derivatives as adenosine receptor antagonists, pharmaceutical compositions and their use” (Merck Sharp & Dohme Corp., priority 2018, dated 2022).

Columns and labels:
[1] = molecular target: human A2a adenosine receptor (Homo sapiens (Human), UniProt P29274); experiment: A2a receptor affinity radioligand binding assay ([3H] SCH58261); details: for IC50: membranes from HEK293 or CHO cells expressing human A2a receptor
Method in brief: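 IC50 values come from 4-parameter logistic fits of filter-bound radioactivity, normalized to total (1% DMSO) and nonspecific (1 μM ZM241385) binding. Recombinant human A2a membranes (HEK293 or CHO) were exposed to compound for 15–30 min, then to [3H]SCH58261 (4 nM working dilution) for 60 min at room temperature in Tris pH 7.4/MgCl2/Tween20 buffer.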

[2] = molecular target: human A2b adenosine receptor (Homo sapiens (Human), UniProt P29275); experiment: A2b radioligand filtration binding assay; details: for IC50: membranes from HEK293 cells expressing human A2b receptor
Method in brief: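 Displacement of a tritiated A2b antagonist (working solution 14 nM) from human A2b receptor membranes of recombinant HEK293 cells, in Mg/Ca-free PBS pH 7.4, 60 min at room temperature after 15 to 30 min compound preincubation. Filtered, counted; normalized to total and 20 μM NECA non-specific binding; IC50 from logistic fit.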

Chain of human A2a adenosine receptor (P29274 whole entry): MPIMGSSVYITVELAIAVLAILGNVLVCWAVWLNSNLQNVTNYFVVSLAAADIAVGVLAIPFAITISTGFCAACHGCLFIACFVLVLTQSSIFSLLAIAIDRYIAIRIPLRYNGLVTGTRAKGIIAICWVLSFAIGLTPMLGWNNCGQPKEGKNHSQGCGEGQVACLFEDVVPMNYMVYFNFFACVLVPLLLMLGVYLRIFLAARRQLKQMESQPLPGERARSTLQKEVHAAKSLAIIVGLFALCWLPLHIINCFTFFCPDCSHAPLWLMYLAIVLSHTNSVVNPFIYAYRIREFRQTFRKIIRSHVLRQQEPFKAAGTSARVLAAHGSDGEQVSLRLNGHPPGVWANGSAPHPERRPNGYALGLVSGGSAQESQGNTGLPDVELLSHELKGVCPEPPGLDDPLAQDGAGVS
Chain of human A2b adenosine receptor (P29275 whole entry): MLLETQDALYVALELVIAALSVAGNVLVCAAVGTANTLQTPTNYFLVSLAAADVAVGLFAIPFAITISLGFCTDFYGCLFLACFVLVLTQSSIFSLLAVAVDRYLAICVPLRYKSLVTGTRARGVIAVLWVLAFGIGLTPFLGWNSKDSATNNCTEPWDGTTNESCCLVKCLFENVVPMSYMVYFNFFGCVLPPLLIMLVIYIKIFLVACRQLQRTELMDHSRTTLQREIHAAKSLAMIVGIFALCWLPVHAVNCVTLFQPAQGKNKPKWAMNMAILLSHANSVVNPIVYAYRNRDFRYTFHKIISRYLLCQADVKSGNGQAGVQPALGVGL

Row | SMILES | IC50 [1] | IC50 [2] | A2A binding % Inh. @ 1000 nM ([1]; @ 1000 nM) | A2B binding % Inh. @ 10000 nM ([2]; @ 10000 nM)
1 | COc1cc2nc(N)n3nc([C@@H]4C[C@@H](C)CN(c5cnn(CC(C)(C)O)c5)C4)nc3c2cc1F (single isomer, unassigned) [Example 92, rac-1-(4-((3R,5R or 3S,5S)-3-(5-amino-9-fluoro-8-methoxy-[1,2,4]triazolo[1,5-c]quinazolin-2-yl)-5-methylpiperidin-1-yl)-1H-pyrazol-1-yl)-2-methylpropan-2-ol] | 10.9 nM | 602 nM |  | 
2 | COc1cc2nc(N)n3nc([C@@H]4CCCN(c5cnn(CCCC(C)O)c5)C4)nc3c2cc1F (single isomer, unassigned) [Example 95, (R or S)-5-(4-((R)-3-(5-amino-9-fluoro-8-methoxy-[1,2,4]triazolo[1,5-c]quinazolin-2-yl)piperidin-1-yl)-1H-pyrazol-1-yl)pentan-2-ol] | 205 nM | 5040 nM |  | 
3 | Cn1cc(N2CCCC(c3nc4c5cc(F)ccc5nc(N)n4n3)C2)cn1 (single isomer, unassigned) [Example 102, (R or S)-9-fluoro-2-(1-(1-methyl-1H-pyrazol-4-yl)piperidin-3-yl)-[1,2,4]triazolo[1,5-c]quinazolin-5-amine] | 104 nM | 539 nM |  | 
4 | Cc1cc(Cl)cc2c1nc(N)n1nc(C3CCCN(c4cnn(C)c4)C3)nc21 (single isomer, unassigned) [Example 105, (R or S)-9-chloro-7-methyl-2-(1-(1-methyl-1H-pyrazol-4-yl)piperidin-3-yl)-[1,2,4]triazolo[1,5-c]quinazolin-5-amine] | 329 nM | 743 nM |  | 
5 | Cn1cc(N2CCCC(c3nc4c5cc(Cl)ccc5nc(N)n4n3)C2)cn1 (single isomer, unassigned) [Example 106, (R or S)-9-chloro-2-(1-(1-methyl-1H-pyrazol-4-yl)piperidin-3-yl)-[1,2,4]triazolo[1,5-c]quinazolin-5-amine] | 316 nM | 430 nM |  | 
6 | Cn1cc(N2CCCC(c3nc4c5c(F)c(F)ccc5nc(N)n4n3)C2)cn1 (single isomer, unassigned) [Example 107, (R or S)-9,10-difluoro-2-(1-(1-methyl-1H-pyrazol-4-yl)piperidin-3-yl)-[1,2,4]triazolo[1,5-c]quinazolin-5-amine] | 127 nM | 1520 nM |  | 
7 | COc1ccc2nc(N)n3nc(C4CCCN(c5cnn(C)c5)C4)nc3c2c1 (single isomer, unassigned) [Example 108, (R or S)-9-methoxy-2-(1-(1-methyl-1H-pyrazol-4-yl)piperidin-3-yl)-[1,2,4]triazolo[1,5-c]quinazolin-5-amine] |  | 8470 nM | 36% Inh. | 
8 | COc1cc(F)cc2c1nc(N)n1nc([C@@H]3CC[C@@H](C)N(c4cn(CC(C)(C)O)nc4C)C3)nc21 (single isomer, unassigned) [Example 114, 1-(4-((2R or 2S,5R or 5S)-5-(5-amino-9-fluoro-7-methoxy-[1,2,4]triazolo[1,5-c]quinazolin-2-yl)-2-methylpiperidin-1-yl)-3-methyl-1H-pyrazol-1-yl)-2-methylpropan-2-ol] | 50.6 nM | 2900 nM |  | 
9 | COc1cc(F)cc2c1nc(N)n1nc([C@H]3CC[C@H](C)N(c4cn(CC(C)(C)O)nc4C)C3)nc21 (single isomer, unassigned) [Example 116, 1-(4-((2S or 2R,5S or 5R)-5-(5-amino-9-fluoro-7-methoxy-[1,2,4]triazolo[1,5-c]quinazolin-2-yl)-2-methylpiperidin-1-yl)-3-methyl-1H-pyrazol-1-yl)-2-methylpropan-2-ol] | 207 nM |  |  | 35% Inh.

The remaining compounds from weak to strong by IC50 [1], led by results:

Row | IC50 [1] | IC50 [2] | A2A binding % Inh. @ 1000 nM ([1]; @ 1000 nM) | A2B binding % Inh. @ 10000 nM ([2]; @ 10000 nM) | SMILES
10 | 44.7 nM | 4620 nM |  |  | COc1cc2nc(N)n3nc([C@H]4C[C@@H](C)CN(c5cnn(CC(C)(C)O)c5)C4)nc3c2cc1F (single isomer, unassigned) [Example 91, 1-(4-((3S,5R or 3R,5S)-3-(5-amino-9-fluoro-8-methoxy-[1,2,4]triazolo[1,5-c]quinazolin-2-yl)-5-methylpiperidin-1-yl)-1H-pyrazol-1-yl)-2-methylpropan-2-ol]
11 | 32.7 nM | 390 nM |  |  | Cn1cc(N2CCCC(c3nc4c5cc(F)c(F)cc5nc(N)n4n3)C2)cn1 (single isomer, unassigned) [Example 101, (R or S)-8,9-difluoro-2-(1-(1-methyl-1H-pyrazol-4-yl)piperidin-3-yl)-[1,2,4]triazolo[1,5-c]quinazolin-5-amine]
12 | 17.7 nM | 766 nM |  |  | COc1cc(Cl)cc2c1nc(N)n1nc(C3CCCN(c4cnn(C)c4)C3)nc21 (single isomer, unassigned) [Example 104, (R or S)-9-chloro-7-methoxy-2-(1-(1-methyl-1H-pyrazol-4-yl)piperidin-3-yl)-[1,2,4]triazolo[1,5-c]quinazolin-5-amine]
13 | 7.8 nM | 752 nM |  |  | COc1cc2nc(N)n3nc([C@@H]4CCCN(c5cnn(CCCC(C)O)c5)C4)nc3c2cc1F (single isomer, unassigned) [Example 94, (S or R)-5-(4-((R)-3-(5-amino-9-fluoro-8-methoxy-[1,2,4]triazolo[1,5-c]quinazolin-2-yl)piperidin-1-yl)-1H-pyrazol-1-yl)pentan-2-ol]
14 | 4.4 nM | 231 nM |  |  | COc1cc2nc(N)n3nc([C@@H]4CCCN(c5cnn([C@@H]6CC[C@@]6(C)O)c5)C4)nc3c2cc1F (single isomer, unassigned) [Example 99, (1R or 1S,2R or 2S)-2-(4-((R)-3-(5-amino-9-fluoro-8-methoxy-[1,2,4]triazolo[1,5-c]quinazolin-2-yl)piperidin-1-yl)-1H-pyrazol-1-yl)-1-methylcyclobutan-1-ol]
15 | 2.9 nM | 895 nM |  |  | COc1cc(F)cc2c1nc(N)n1nc([C@@H]3CC[C@H](C)N(c4cn(CC(C)(C)O)nc4C)C3)nc21 (single isomer, unassigned) [Example 115, 1-(4-((2S or 2R,5R or 5S)-5-(5-amino-9-fluoro-7-methoxy-[1,2,4]triazolo[1,5-c]quinazolin-2-yl)-2-methylpiperidin-1-yl)-3-methyl-1H-pyrazol-1-yl)-2-methylpropan-2-ol]
16 | 1.2 nM | 29 nM |  |  | COc1cc2nc(N)n3nc([C@@H]4C[C@H](C)CN(c5cnn(CC(C)(C)O)c5)C4)nc3c2cc1F (single isomer, unassigned) [Example 90, 1-(4-((3R,5S or 3S,5R)-3-(5-amino-9-fluoro-8-methoxy-[1,2,4]triazolo[1,5-c]quinazolin-2-yl)-5-methylpiperidin-1-yl)-1H-pyrazol-1-yl)-2-methylpropan-2-ol]
17 | 0.9 nM | 116 nM |  |  | COc1cc2nc(N)n3nc([C@@H]4CCCN(c5cnn([C@H]6CC[C@]6(C)O)c5)C4)nc3c2cc1F (single isomer, unassigned) [Example 98, (1S or 1R,2S or 2R)-2-(4-((R)-3-(5-amino-9-fluoro-8-methoxy-[1,2,4]triazolo[1,5-c]quinazolin-2-yl)piperidin-1-yl)-1H-pyrazol-1-yl)-1-methylcyclobutan-1-ol]
18 | 0.7 nM | 24.6 nM |  |  | COc1cc2nc(N)n3nc([C@@H]4CC[C@H](C)N(c5cnn(C6CCC(C)(O)CC6)c5)C4)nc3c2cc1F (single isomer, unassigned) [Example 96, rac-(1r,4s or 1r,4r)-4-(4-((2S,5R or 2R,5S)-5-(5-amino-9-fluoro-8-methoxy-[1,2,4]triazolo[1,5-c]quinazolin-2-yl)-2-methylpiperidin-1-yl)-1H-pyrazol-1-yl)-1-methylcyclohexan-1-ol]
19 | 0.6 nM | 33.3 nM |  |  | COc1cc2nc(N)n3nc([C@@H]4CC[C@H](C)N(c5cnn(C6CCC(C)(O)CC6)c5)C4)nc3c2cc1F (single isomer, unassigned) [Example 97, rac-(1r,4r or 1r,4s)-4-(4-((2S,5R or 2R,5S)-5-(5-amino-9-fluoro-8-methoxy-[1,2,4]triazolo[1,5-c]quinazolin-2-yl)-2-methylpiperidin-1-yl)-1H-pyrazol-1-yl)-1-methylcyclohexan-1-ol]
20 | 0.5 nM | 137 nM |  |  | Cn1cc(N2CCCC(c3nc4c5cc(F)cc(F)c5nc(N)n4n3)C2)cn1 (single isomer, unassigned) [Example 103, (R or S)-7,9-difluoro-2-(1-(1-methyl-1H-pyrazol-4-yl)piperidin-3-yl)-[1,2,4]triazolo[1,5-c]quinazolin-5-amine]
21 | 0.2 nM | 3.4 nM |  |  | COc1cc2nc(N)n3nc(C4CCC(C)N(c5cnn(C6CCCC6O)c5)C4)nc3c2cc1F (single isomer, unassigned) [Example 89, (1S or 1R,2S or 2R)-2-(4-((2S,5R or 2R,5S)-5-(5-amino-9-fluoro-8-methoxy-[1,2,4]triazolo[1,5-c]quinazolin-2-yl)-2-methylpiperidin-1-yl)-1H-pyrazol-1-yl)cyclopentan-1-ol]
22 | 0.2 nM | 13 nM |  |  | COc1cc(F)cc2c1nc(N)n1nc([C@H]3CC[C@@H](C)N(c4cn(CC(C)(C)O)nc4C)C3)nc21 (single isomer, unassigned) [Example 117, 1-(4-((2R or 2S,5S or 5R)-5-(5-amino-9-fluoro-7-methoxy-[1,2,4]triazolo[1,5-c]quinazolin-2-yl)-2-methylpiperidin-1-yl)-3-methyl-1H-pyrazol-1-yl)-2-methylpropan-2-ol]
